Test results taken from article PMC4700278, “Molecular and Biochemical Analysis of the Estrogenic and Proliferative Properties of Vitamin E Compounds” (Frontiers in Oncology, 2016).

Key:
[1] = system: ER-dependent transcription in MELN cells; experiment: ERE-luciferase reporter assay in MELN cells (MCF-7 stably transfected with ERE-β-globin-tk-Luc); assay type: cell-based, human; conditions: for stimulation of luciferase expression (ER-dependent transcription): 500 μM (tocols 10 to 500 μM)
From the text: MELN cells were established by transfecting ER(+) MCF-7 cells with the ERE-β-globin-tk-Luc-SV-Neo plasmid ([36]). HELN cells were generated by transfection of ER(−) HeLa cells with this plasmid. The HELN-ERα, HELN-ERβ, HELN-ΔAB-ERα, and HELN-ΔAB-ERβ cell lines then underwent a second transfection with the corresponding pSG5-puro plasmids (pSG5-ERα-puro, pSG5-ERβ-puro, pSG5-ΔAB-ERα-puro, and pSG5-ΔAB-ERβ-puro, respectively) and expressed wild-type or mutated ERα or ERβ ([39], [40]). […] Comparison of the activities toward hERα and hERβ with the truncated ΔAB-ERα and ΔAB-ERβ provides a powerful model to identify partial ER agonists (requiring ligand-independent AF-1 to induce maximal ER activation). […] Cells were grown routinely in DMEM growth medium supplemented with 5% FBS (Gibco BRL, Life Technologies, Cergy pontoise, France). Cells were incubated at 37°C in a humidified 5% CO2 incubator. For experiments, cells were grown for 5 days in phenol red-free medium, containing 6% dextran-coated charcoal-treated FCS (DCC-FCS) with penicillin–streptomycin. Medium was changed after 2 days. On day 5, cells were treated or not with the compounds, which were dissolved in ethanol. For each condition, 15 × 10^3 cells were seeded per well in 12-well plates and treated, as described above, for 8 h in a final volume of 0.5 ml. At the end of the treatment, cells were washed with PBS and lysed in 150 μl lysis buffer (Promega, Charbonnières, France). Luciferase activity was measured using the luciferase assay reagent (Promega), according to the manufacturer’s instructions. Protein concentrations were measured using the Bradford technique ([41]) to normalize the luciferase activity data. For each condition, average luciferase activity was calculated from the data of three independent wells.
Figure 3 Measurement of estrogenicity of tocols in vitro. (A) Dose–response curve of the effect of tocols on MCF-7 cells stably transfected with the ERE-β-globin-tk-Luc plasmid (MELN cells). […] Data shown are the mean values ± SEM from three independent experiments. […] MCF-7 extracts were analyzed for the presence of ERα by western blotting using GAPDH as a control. […] The western blot shown is representative of three independent experiments. The ratio of ERα to GAPDH levels in each experiment was determined densitometrically and normalized to control value (taken to be 1). (D) Effect of δ-tocols on estrogen response element-dependent luciferase activity in HELN cells, which are HELA cells transfected with either fully functional ERα or ERβ or their mutated versions containing a deletion the AB domain (ΔAB). […] Data shown are the mean values ± SEM from three independent experiments. […] Cells were treated with 500 μM δ-tocols in the presence or in the absence of ICI. The relative expression of TGFα, PR, and Ps2 (TFF1) after 16 h was analyzed by quantitative RT-PCR. Data shown are the mean values ± SEM from three independent experiments.

MCF-7 (ER(+)) cells = experiment: Cell proliferation assay (sulforhodamine B); assay type: cell-based, human
Description: (§1) MCF-7 (ER(+)), T47D (ER(+)), and MDA-MB-231 (ER(−)) cell lines were from ATCC. Cell lines were maintained at 37°C in a humidified incubator in a 5% CO2-enriched atmosphere in T-75 flasks. […] Cells were grown for 24 h before treatment in phenol red-free medium containing 5% DCC-FCS. Cells were seeded into 96-well plates at 2000 cells/well. Treatment media (150 μl/well) was added on the following day and replaced at 48-h intervals until the end of the experiment. Cell density was measured via the sulforhodamine B method ([43]) after 0, 2, 4, 6, and 8 days. The absorbance of SRB was measured directly at 490 nm in the 96-well plates using a multiskan® multisoft reader from Labsystem.

T47D (ER(+)) cells = experiment: Cell proliferation assay (sulforhodamine B); assay type: cell-based, human
Description: as §1

MDA-MB-231 (ER(−)) cells = experiment: Cell proliferation assay (sulforhodamine B); assay type: cell-based, human; conditions: 500 μM δ-TP or δ-TT; 30 μM lovastatin; 6-day period
Description: MCF-7 (ER(+)), T47D (ER(+)), and MDA-MB-231 (ER(−)) cell lines were from ATCC. Cell lines were maintained at 37°C in a humidified incubator in a 5% CO2-enriched atmosphere in T-75 flasks. MCF-7, T47D, and MDA-MB-231 cells were grown routinely in phenol red RPMI 1640 medium supplemented with 5% FBS (Gibco BRL, Life Technologies, Cergy Pontoise, France) and with penicillin–streptomycin. Cells were grown for 24 h before treatment in phenol red-free medium containing 5% DCC-FCS. Cells were seeded into 96-well plates at 2000 cells/well. Treatment media (150 μl/well) was added on the following day and replaced at 48-h intervals until the end of the experiment. Cell density was measured via the sulforhodamine B method ([43]) after 0, 2, 4, 6, and 8 days. The absorbance of SRB was measured directly at 490 nm in the 96-well plates using a multiskan® multisoft reader from Labsystem.
Figure 4 Effect of tocol on ER(+) and ER(−) BC cell proliferation and HMG-CoA reductase activity. (A) Effect of δ-tocols on estrogen and non-estrogen-regulated growth of MCF-7, T47D, and MDA-MB-231 cells. […] Cells were also treated with 30 μM lovastatin (Lova) in the presence or absence of 5 mM M, as described in Section “Materials and Methods.” Values are shown as means and vertical bars represent SEM. The data were analyzed by two-way ANOVA, followed by Bonferroni post hoc test. ***P < 0.001, **P < 0.01, and *P < 0.05 in comparison with control or bare-linked specific control. Ns: not significant. (B) Effect of δ-TT on hydroxymethylglutaryl coenzyme A reductase (HMGR) activity in MCF-7, T47D, and MDA-MB-231 cells. […] Data shown are the mean values ± SEM from three independent experiments performed in triplicate.

ERβ = ERβ (Homo sapiens, UniProt Q92731); experiment: Estrogen receptor-binding assay, competition with [3H]-17β-estradiol; design: expressed in transfected cells; host or cells: Cos-7; conditions: extracts of cos-7 cells expressing human ERβ; 2 nM [3H]-E2; tocols 1 μM to 1 mM; N.M. = not measurable
ERβ, sequence (Q92731 whole entry): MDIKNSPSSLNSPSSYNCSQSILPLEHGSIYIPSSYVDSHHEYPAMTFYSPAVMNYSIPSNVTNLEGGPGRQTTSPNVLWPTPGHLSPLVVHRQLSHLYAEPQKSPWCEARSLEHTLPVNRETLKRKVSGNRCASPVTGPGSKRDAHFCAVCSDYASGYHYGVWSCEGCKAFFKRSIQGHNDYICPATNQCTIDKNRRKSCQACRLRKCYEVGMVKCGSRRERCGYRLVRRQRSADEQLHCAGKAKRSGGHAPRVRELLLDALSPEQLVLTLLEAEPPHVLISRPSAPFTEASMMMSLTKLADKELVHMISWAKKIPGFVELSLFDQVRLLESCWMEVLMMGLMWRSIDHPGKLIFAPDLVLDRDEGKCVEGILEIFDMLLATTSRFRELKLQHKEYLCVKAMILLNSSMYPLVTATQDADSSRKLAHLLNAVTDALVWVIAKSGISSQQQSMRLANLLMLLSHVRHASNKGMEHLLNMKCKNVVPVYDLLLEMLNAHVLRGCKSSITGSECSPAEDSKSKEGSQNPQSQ

ERα = target: T1, ERα (Homo sapiens, UniProt P03372); experiment: as above; design: expressed in transfected cells; host or cells: Cos-7; conditions: extracts of cos-7 cells expressing human ERα; 2 nM [3H]-E2; tocols 1 μM to 1 mM; N.M. = not measurable
T1 sequence (P03372 1-595): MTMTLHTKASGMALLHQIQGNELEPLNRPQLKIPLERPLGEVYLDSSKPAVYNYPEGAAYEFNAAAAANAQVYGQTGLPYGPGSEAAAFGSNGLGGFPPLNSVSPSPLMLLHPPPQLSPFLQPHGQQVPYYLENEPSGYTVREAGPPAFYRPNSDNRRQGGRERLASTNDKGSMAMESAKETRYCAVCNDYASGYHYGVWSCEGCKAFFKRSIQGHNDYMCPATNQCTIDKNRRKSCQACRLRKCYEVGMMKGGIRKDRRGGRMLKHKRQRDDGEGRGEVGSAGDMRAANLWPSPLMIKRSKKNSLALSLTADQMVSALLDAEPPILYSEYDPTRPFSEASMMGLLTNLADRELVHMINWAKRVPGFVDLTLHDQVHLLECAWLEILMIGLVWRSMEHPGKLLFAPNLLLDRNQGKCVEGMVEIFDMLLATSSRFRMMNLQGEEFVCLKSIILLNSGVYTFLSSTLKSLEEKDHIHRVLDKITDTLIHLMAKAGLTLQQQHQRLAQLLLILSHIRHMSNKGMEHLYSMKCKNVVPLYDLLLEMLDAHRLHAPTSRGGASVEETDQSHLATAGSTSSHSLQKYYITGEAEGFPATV

[2] = 500 μM δ-TP or δ-TT, 30 μM lovastatin, 6-day period

SMILES	stimulation of luciferase expression (ER-dependent transcription) [1]	IC50 (ERβ) [µM]	IC50 (ERα) [µM]	other results
Cc1cc(C(C)(C)C)c(O)c(C(C)(C)C)c1 [BHT, butylated hydroxytoluene, reference compound]	did not stimulate the expression of luciferase	–	–	–
CCCCN(C)C(=O)CCCCCCCCCCC1Cc2cc(O)ccc2C2CC[C@@]3(C)C(CC[C@@H]3O)C12 (stereo partly shown) [ICI 164,384, reference compound]	–	–	–	blockade of δ-TP- and E2-induced stimulation of MCF-7 proliferation (MCF-7 (ER(+)) cells; 1 μM ICI 164,384): blocked; blockade of tocol-induced ER-dependent transcriptional activity ([1]; 1 μM ICI 164,384 with 500 μM δ-TP or δ-TT): blocked; blockade of δ-TP- and E2-induced stimulation of T47D proliferation (T47D (ER(+)) cells; 1 μM ICI 164,384): blocked
CC(C)(Sc1cc(C(C)(C)C)c(O)c(C(C)(C)C)c1)Sc1cc(C(C)(C)C)c(O)c(C(C)(C)C)c1 [Probucol, probucol, reference compound]	did not stimulate the expression of luciferase	–	–	–
CC[C@H](C)C(=O)O[C@H]1C[C@@H](C)C=C2C=C[C@H](C)[C@H](CC[C@@H]3C[C@@H](O)CC(=O)O3)[C@H]21 [lovastatin, reference compound]	–	–	–	effect on MCF-7 cell proliferation (MCF-7 (ER(+)) cells; [2]): inhibition of cell proliferation; effect on T47D cell proliferation (T47D (ER(+)) cells; [2]): inhibition of cell proliferation; effect on MDA-MB-231 cell proliferation (MDA-MB-231 (ER(−)) cells): inhibition of cell proliferation
Cc1c(C)c2c(c(C)c1O)CC[C@@](C)(CCC[C@H](C)CCC[C@H](C)CCCC(C)C)O2 [α-TP, α-tocopherol]	–	431 ± 21	453 ± 30	–
CC(C)=CCC/C(C)=C/CC/C(C)=C/CC[C@]1(C)CCc2c(C)c(O)c(C)c(C)c2O1 [α-TT, α-tocotrienol]	–	388 ± 32	412 ± 22	–
Cc1c(O)cc2c(c1C)O[C@](C)(CCC[C@H](C)CCC[C@H](C)CCCC(C)C)CC2 [γ-TP, γ-tocopherol]	–	215 ± 16	227 ± 28	–
CC(C)=CCC/C(C)=C/CC/C(C)=C/CC[C@]1(C)CCc2cc(O)c(C)c(C)c2O1 [γ-TT, γ-tocotrienol]	–	205 ± 18	203 ± 25	–
CC1=CC(=O)C=C(CC[C@](C)(O)CCC[C@H](C)CCC[C@H](C)CCCC(C)C)C1=O [δ-TPQuin, δ-tocopherylquinone]	did not stimulate the expression of luciferase	–	–	ERβ (IC50) (ERβ): did not bind and N.M.; ERα (IC50) (ERα): did not bind and N.M.
